Test results as given in patent US8247211B2, “Glycopeptide antibiotics” (American Cyanamid Company, priority 2001, dated 2012).
In brackets after ≈: the same amount, converted by molar mass.

Experiments:
Assay in all cases: In vitro antibacterial evaluation: minimum inhibitory concentration (MIC), broth dilution method
Format in all cases: cell-based
[1] = test system: Escherichia coli
Method in brief: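 NCCLS M7-A2 broth dilution; Muller-Hinton II […]; 5×10^5 CFU/mL; 64-0.06 μg/mL. MIC = lowest concentration with no growth.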

[2] = test system: Staphylococcus sp.; details: broth dilution, 18 hours at 35° C.
Method in brief: (§1)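 Values are minimum inhibitory concentrations, meaning the smallest antibiotic concentration that stops growth of the organism. They come from broth dilution in Muller-Hinton II […] per NCCLS guidance (M7-A2), using 5×10^5 CFU/mL and concentrations from 64 to 0.06 μg/mL.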

[3] = test system: Streptococcus sp.
Method in brief: as §1

[4] = test system: Enterococcus sp.
Method in brief: as §1

With `CCCc1ccc(C2OCC3OC(OC4C(CO)OC(Oc5ccc(CC6NC(=O)C(C(C)c7ccccc7)NC(=O)CNC(=O)C(CO)NC(=O)C(C(O)C7CNC(=N)N7C7OC(CO)C(O)C(O)C7O)NC(=O)C(C(O)C7CNC(=N)N7)NC6=O)cc5)C(O)C4O)C(O)C(O)C3O2)cc1` (stereo not drawn) [Example 140, Cyclo[glycyl-β-methylphenylalanyl-O-[4-O-[4,6-O-(4-propylbenzylidene)hexopyranosyl]-hexopyranosyl]tyrosyl-3-(2-iminoimidazolidin-4-yl)seryl-3-(3-hexopyranosyl-2-iminoimidazolidin-4-yl)serylseryl]] the “MIC Escherichia coli (ATCC 25922)” value ([1]; strain ATCC 25922) was 64 µg/mL (≈ 44.9 µM), the “MIC Escherichia coli (GC 4559)” value ([1]; strain GC 4559) was 64 µg/mL (≈ 44.9 µM) and the “MIC Escherichi coli (GC 4560)” value ([1]; strain GC 4560) was 1 µg/mL (≈ 0.702 µM). The “MIC Coagulase Negative Staphylococcus (GC 4547)” value ([2]; 5×10^5 CFU/mL) was <0.5 µg/mL, the “MIC Coagulase Negative Staphylococcus (GC 4548)” value ([2]; 5×10^5 CFU/mL) was <0.5 µg/mL and the “MIC Coagulase Negative Staphylococcus (GC 4549)” value ([2]; 5×10^5 CFU/mL) was <0.5 µg/mL. For the same molecule, the “MIC Coagulase Negative Staphylococcus (GC 4551)” value ([2]; 5×10^5 CFU/mL) was <0.5 µg/mL, the “MIC Coagulase Negative Staphylococcus (GC 6257)” value ([2]; 5×10^5 CFU/mL) was <0.5 µg/mL and the “MIC Staphylococcus aureus (ATCC 29213)” value ([2]; 5×10^5 CFU/mL) was 1 µg/mL (≈ 0.702 µM). The “MIC Staphylococcus aureus (GC 1131)” value ([2]; 5×10^5 CFU/mL) was 1 µg/mL (≈ 0.702 µM), the “MIC Staphylococcus aureus (GC 3051)” value ([2]; 5×10^5 CFU/mL) was 1 µg/mL (≈ 0.702 µM) and the “MIC Staphylococcus aureus (GC 3053)” value ([2]; 5×10^5 CFU/mL) was <0.5 µg/mL. The “MIC Staphylococcus aureus (GC 4541)” value ([2]; 5×10^5 CFU/mL) was 1 µg/mL (≈ 0.702 µM), the “MIC Staphylococcus aureus (GC 4542)” value ([2]; 5×10^5 CFU/mL) was 1 µg/mL (≈ 0.702 µM) and the “MIC Staphylococcus aureus (GC 4544)” value ([2]; 5×10^5 CFU/mL) was 1 µg/mL (≈ 0.702 µM). For the same molecule, the “MIC Staphylococcus aureus (GC 4545)” value ([2]; 5×10^5 CFU/mL) was <0.5 µg/mL, the “MIC Staphylococcus aureus-SMITH (GC 4543)” value ([2]; 5×10^5 CFU/mL) was 1 µg/mL (≈ 0.702 µM) and the “MIC Staphylococcus haemolyticus (GC 4546)” value ([2]; 5×10^5 CFU/mL) was 1 µg/mL (≈ 0.702 µM). For the same molecule, the “MIC Staphylococcus aureus (ATCC 29213)” value ([2]; strain ATCC 29213) was 1 µg/mL (≈ 0.702 µM), the “MIC Staphylococcus aureus (GC 1131)” value ([2]; strain GC 1131) was 1 µg/mL (≈ 0.702 µM) and the “MIC Staphylococcus aureus (GC 3051)” value ([2]; strain GC 3051) was 1 µg/mL (≈ 0.702 µM). The “MIC Staphylococcus aureus (GC 3053)” value ([2]; strain GC 3053) was <0.5 µg/mL, the “MIC Staphylococcus aureus (GC 4541)” value ([2]; strain GC 4541) was 1 µg/mL (≈ 0.702 µM) and the “MIC Staphylococcus aureus (GC 4542)” value ([2]; strain GC 4542) was 1 µg/mL (≈ 0.702 µM). For the same molecule, the “MIC Staphylococcus aureus-SMITH (GC 4543)” value ([2]; strain GC 4543) was 1 µg/mL (≈ 0.702 µM), the “MIC Staphylococcus aureus (GC 4544)” value ([2]; strain GC 4544) was 1 µg/mL (≈ 0.702 µM) and the “MIC Staphylococcus aureus (GC 4545)” value ([2]; strain GC 4545) was <0.5 µg/mL. The “MIC Staphylococcus haemolyticus (GC 4546)” value ([2]; strain GC 4546) was 1 µg/mL (≈ 0.702 µM), the “MIC Coagulase Negative Staphylococcus (GC 4547)” value ([2]; strain GC 4547) was <0.5 µg/mL and the “MIC Coagulase Negative Staphylococcus (GC 4548)” value ([2]; strain GC 4548) was <0.5 µg/mL. For the same molecule, the “MIC Coagulase Negative Staphylococcus (GC 4549)” value ([2]; strain GC 4549) was <0.5 µg/mL, the “MIC Coagulase Negative Staphylococcus (GC 4551)” value ([2]; strain GC 4551) was <0.5 µg/mL and the “MIC Coagulase Negative Staphylococcus (GC 6257)” value ([2]; strain GC 6257) was <0.5 µg/mL. For the same molecule, the “MIC Streptococcus pneumoniae (ATCC 6301)” value ([3]; strain ATCC 6301) was <0.5 µg/mL, the “MIC Streptococcus pneumoniae (GC 1894)” value ([3]; strain GC 1894) was <0.5 µg/mL and the “MIC Streptococcus pyogenes (GC 4563)” value ([3]; strain GC 4563) was <0.5 µg/mL. The “MIC Streptococcus agalactiae (GC 4564)” value ([3]; strain GC 4564) was <0.5 µg/mL, the “MIC Streptococcus pneumoniae (GC 4565)” value ([3]; strain GC 4565) was <0.5 µg/mL and the “MIC Enterococcus faecalis (ATCC 29212)” value ([4]; strain ATCC 29212) was <0.5 µg/mL. The “MIC Enterococcus faecalis (GC 2242)” value ([4]; strain GC 2242) was <1 µg/mL, the “MIC Enterococcus faecium (GC 2243)” value ([4]; strain GC 2243) was 1 µg/mL (≈ 0.702 µM) and the “MIC Enterococcus faecalis (GC 2691)” value ([4]; strain GC 2691) was 1 µg/mL (≈ 0.702 µM). The “MIC Enterococcus faecalis (GC 3059)” value ([4]; strain GC 3059) was 1 µg/mL (≈ 0.702 µM), the “MIC Enterococcus faecalis (GC 4552)” value ([4]; strain GC 4552) was 1 µg/mL (≈ 0.702 µM) and the “MIC Enterococcus faecalis (GC 4553)” value ([4]; strain GC 4553) was 1 µg/mL (≈ 0.702 µM). The “MIC Enterococcus faecalis (GC 4554)” value ([4]; strain GC 4554) was 1 µg/mL (≈ 0.702 µM), the “MIC Enterococcus faecium (GC 4556)” value ([4]; strain GC 4556) was 1 µg/mL (≈ 0.702 µM) and the “MIC Enterococcus faecium (GC 4557)” value ([4]; strain GC 4557) was 1 µg/mL (≈ 0.702 µM). The “MIC Enterococcus avium (GC 4558)” value ([4]; strain GC 4558) was 1 µg/mL (≈ 0.702 µM) and the “MIC Enterococcus faecalis (GC 6189)” value ([4]; strain GC 6189) was 1 µg/mL (≈ 0.702 µM).
